Reference: patent US20230398130A1, “METHODS AND COMPOSITIONS FOR DIFFERENTIATING STEM CELLS” (Massachusetts Institute of Technology, priority 2020, published 2023)

Assays:
ISC-enriched organoids [1] = assay: Primary screen, 384-well 2.5-D organoid differentiation (ENR+CD, 6 days): carbachol-induced lysozyme secretion (LYZ.S); format: cell-based, murine; conditions: for Dose.FC.LYZ.S: FC vs plate median; for Z.LYZ.S: standard z score; for SSMD.LYZ.S: strictly standardized mean difference
Excerpt: (§1) High-throughput screening.

ISC-enriched organoids [2] = assay: Primary screen, 384-well 2.5-D organoid differentiation (ENR+CD, 6 days): basal lysozyme secretion (LYZ.NS); format: cell-based, murine; conditions: for Dose.FC.LYZ.NS: FC vs plate median; for SSMD.LYZ.NS: strictly standardized mean difference
Excerpt: as §1

ISC-enriched organoids [3] = assay: Primary screen, 384-well 2.5-D organoid differentiation (ENR+CD, 6 days, Target Selective Inhibitor Library, vs whole-plate median): ATP (CellTiter-Glo 3D, CTG); conditions: for Dose.FC.CTG: FC vs plate median; for SSMD.CTG: strictly standardized mean difference
[4] = Dose 0.08 uM, standard z score of FC
[5] = Dose 0.40 uM, standard z score of FC
[6] = Dose 2.00 uM, standard z score of FC
[7] = Dose 10.00 uM, standard z score of FC
[8] = primary screen, 1st of the 4 dose lines of the treatment (dose not given)
[9] = primary screen, 2nd of the 4 dose lines of the treatment (dose not given)
[10] = primary screen, 3rd of the 4 dose lines of the treatment (dose not given)
[11] = primary screen, 4th of the 4 dose lines of the treatment (dose not given)
[12] = Dose 0.08 uM, primary screen, standard z score
[13] = Dose 0.40 uM, primary screen, standard z score
[14] = Dose 2.00 uM, primary screen, standard z score
[15] = Dose 10.00 uM, primary screen, standard z score

CC(C)Oc1ccc(-c2cnc3c(-c4ccnc5ccccc45)cnn3c2)cc1 [DMH1]
Dose.FC.LYZ.S (ISC-enriched organoids [1]; Dose 0.08 uM, ENR+CD, 6 days): 0.078 log 2 fold change
Dose.FC.LYZ.S (ISC-enriched organoids [1]; Dose 0.40 uM, ENR+CD, 6 days): 0.054 log 2 fold change
Dose.FC.LYZ.S (ISC-enriched organoids [1]; Dose 2.00 uM, ENR+CD, 6 days): 0.035 log 2 fold change
Dose.FC.LYZ.S (ISC-enriched organoids [1]; Dose 10.00 uM, ENR+CD, 6 days): −0.092 log 2 fold change
Dose.FC.LYZ.NS (ISC-enriched organoids [2]; Dose 0.08 uM, ENR+CD, 6 days): 0.018 log 2 fold change
Z.LYZ.NS (ISC-enriched organoids [2]; [4]): 0.155
Dose.FC.LYZ.NS (ISC-enriched organoids [2]; Dose 0.40 uM, ENR+CD, 6 days): 0.026 log 2 fold change
Z.LYZ.NS (ISC-enriched organoids [2]; [5]): 0.231
Dose.FC.LYZ.NS (ISC-enriched organoids [2]; Dose 2.00 uM, ENR+CD, 6 days): 0.014 log 2 fold change
Z.LYZ.NS (ISC-enriched organoids [2]; [6]): 0.124
Dose.FC.LYZ.NS (ISC-enriched organoids [2]; Dose 10.00 uM, ENR+CD, 6 days): −0.075 log 2 fold change
Z.LYZ.NS (ISC-enriched organoids [2]; [7]): −0.657
Dose.FC.CTG (ISC-enriched organoids [3]; Dose 0.08 uM, ENR+CD, 6 days): −0.031 log 2 fold change
Z.CTG (ISC-enriched organoids [3]; [4]): −0.075
Dose.FC.CTG (ISC-enriched organoids [3]; Dose 0.40 uM, ENR+CD, 6 days): −0.079 log 2 fold change
Z.CTG (ISC-enriched organoids [3]; [5]): −0.188
Dose.FC.CTG (ISC-enriched organoids [3]; Dose 2.00 uM, ENR+CD, 6 days): −0.002 log 2 fold change
Z.CTG (ISC-enriched organoids [3]; [6]): −0.004
Dose.FC.CTG (ISC-enriched organoids [3]; Dose 10.00 uM, ENR+CD, 6 days): −0.001 log 2 fold change
Z.CTG (ISC-enriched organoids [3]; [7]): −0.003

Nc1nc(CC(=O)Nc2ccc(CCNC[C@H](O)c3ccccc3)cc2)cs1 [Mirabegron]
Z.LYZ.S (ISC-enriched organoids [1]; [8]): 0.958
Z.LYZ.S (ISC-enriched organoids [1]; [9]): −0.103
Z.LYZ.S (ISC-enriched organoids [1]; [10]): −0.317
Z.LYZ.S (ISC-enriched organoids [1]; [11]): −0.065
SSMD.LYZ.S (ISC-enriched organoids [1]; [8]): 0.863
SSMD.LYZ.S (ISC-enriched organoids [1]; [9]): −0.090
SSMD.LYZ.S (ISC-enriched organoids [1]; [10]): −0.363
SSMD.LYZ.S (ISC-enriched organoids [1]; [11]): −0.064
SSMD.LYZ.NS (ISC-enriched organoids [2]; [8]): 1.039
SSMD.LYZ.NS (ISC-enriched organoids [2]; [9]): −0.280
SSMD.LYZ.NS (ISC-enriched organoids [2]; [10]): −0.346
SSMD.LYZ.NS (ISC-enriched organoids [2]; [11]): 0.113
Z.CTG (ISC-enriched organoids [3]; [4]): 0.069
Z.CTG (ISC-enriched organoids [3]; [5]): −0.801
Z.CTG (ISC-enriched organoids [3]; [6]): 0.046
Z.CTG (ISC-enriched organoids [3]; [7]): −0.123
SSMD.CTG (ISC-enriched organoids [3]; [8]): 0.101
SSMD.CTG (ISC-enriched organoids [3]; [9]): −0.380
SSMD.CTG (ISC-enriched organoids [3]; [10]): 0.068
SSMD.CTG (ISC-enriched organoids [3]; [11]): −0.150

CNC(=O)c1cc(Oc2ccc(NC(=O)Nc3cc(C(C)(C)C)nn3-c3ccc4ncccc4c3)c(F)c2)ccn1 [DCC-2036 (Rebastinib)]
Dose.FC.LYZ.S (ISC-enriched organoids [1]; Dose 0.08 uM, ENR+CD, 6 days): 0.358 log 2 fold change
Dose.FC.LYZ.S (ISC-enriched organoids [1]; Dose 0.40 uM, ENR+CD, 6 days): 0.186 log 2 fold change
Dose.FC.LYZ.S (ISC-enriched organoids [1]; Dose 2.00 uM, ENR+CD, 6 days): 0.054 log 2 fold change
Dose.FC.LYZ.S (ISC-enriched organoids [1]; Dose 10.00 uM, ENR+CD, 6 days): −0.244 log 2 fold change
Dose.FC.LYZ.NS (ISC-enriched organoids [2]; Dose 0.08 uM, ENR+CD, 6 days): 0.259 log 2 fold change
Z.LYZ.NS (ISC-enriched organoids [2]; [4]): 2.256
Dose.FC.LYZ.NS (ISC-enriched organoids [2]; Dose 0.40 uM, ENR+CD, 6 days): 0.128 log 2 fold change
Z.LYZ.NS (ISC-enriched organoids [2]; [5]): 1.116
Dose.FC.LYZ.NS (ISC-enriched organoids [2]; Dose 2.00 uM, ENR+CD, 6 days): 0.073 log 2 fold change
Z.LYZ.NS (ISC-enriched organoids [2]; [6]): 0.637
Dose.FC.LYZ.NS (ISC-enriched organoids [2]; Dose 10.00 uM, ENR+CD, 6 days): −0.209 log 2 fold change
Z.LYZ.NS (ISC-enriched organoids [2]; [7]): −1.823
Dose.FC.CTG (ISC-enriched organoids [3]; Dose 0.08 uM, ENR+CD, 6 days): 0.216 log 2 fold change
Z.CTG (ISC-enriched organoids [3]; [4]): 0.516
Dose.FC.CTG (ISC-enriched organoids [3]; Dose 0.40 uM, ENR+CD, 6 days): 0.218 log 2 fold change
Z.CTG (ISC-enriched organoids [3]; [5]): 0.520
Dose.FC.CTG (ISC-enriched organoids [3]; Dose 2.00 uM, ENR+CD, 6 days): −0.038 log 2 fold change
Z.CTG (ISC-enriched organoids [3]; [6]): −0.091
Dose.FC.CTG (ISC-enriched organoids [3]; Dose 10.00 uM, ENR+CD, 6 days): −0.322 log 2 fold change
Z.CTG (ISC-enriched organoids [3]; [7]): −0.769

O=C(c1ccc(Nc2nccc(-c3cc4ccccc4s3)n2)cc1)N1CCC(N2CCCC2)CC1 [IKK-16 (IKK Inhibitor VII)]
Dose.FC.LYZ.S (ISC-enriched organoids [1]; Dose 0.08 uM, primary screen): 0.092 log 2 fold change
Dose.FC.LYZ.S (ISC-enriched organoids [1]; Dose 0.40 uM, primary screen): 0.028 log 2 fold change
Dose.FC.LYZ.S (ISC-enriched organoids [1]; Dose 2.00 uM, primary screen): −0.142 log 2 fold change
Dose.FC.LYZ.S (ISC-enriched organoids [1]; Dose 10.00 uM, primary screen): −0.383 log 2 fold change
Z.LYZ.S (ISC-enriched organoids [1]; [8]): 0.593
Z.LYZ.S (ISC-enriched organoids [1]; [9]): 0.179
Z.LYZ.S (ISC-enriched organoids [1]; [10]): −0.918
Z.LYZ.S (ISC-enriched organoids [1]; [11]): −2.475
SSMD.LYZ.S (ISC-enriched organoids [1]; [8]): 0.496
SSMD.LYZ.S (ISC-enriched organoids [1]; [9]): 0.203
SSMD.LYZ.S (ISC-enriched organoids [1]; [10]): −0.698
SSMD.LYZ.S (ISC-enriched organoids [1]; [11]): −1.351
Dose.FC.LYZ.NS (ISC-enriched organoids [2]; Dose 0.08 uM, primary screen): 0.104 log 2 fold change
Z.LYZ.NS (ISC-enriched organoids [2]; [12]): 0.903
Dose.FC.LYZ.NS (ISC-enriched organoids [2]; Dose 0.40 uM, primary screen): 0.020 log 2 fold change
Z.LYZ.NS (ISC-enriched organoids [2]; [13]): 0.176
Dose.FC.LYZ.NS (ISC-enriched organoids [2]; Dose 2.00 uM, primary screen): −0.081 log 2 fold change
Z.LYZ.NS (ISC-enriched organoids [2]; [14]): −0.708
Dose.FC.LYZ.NS (ISC-enriched organoids [2]; Dose 10.00 uM, primary screen): −0.291 log 2 fold change
Z.LYZ.NS (ISC-enriched organoids [2]; [15]): −2.531
SSMD.LYZ.NS (ISC-enriched organoids [2]; [8]): 0.817
SSMD.LYZ.NS (ISC-enriched organoids [2]; [9]): 0.207
SSMD.LYZ.NS (ISC-enriched organoids [2]; [10]): −0.481
SSMD.LYZ.NS (ISC-enriched organoids [2]; [11]): −2.119
Dose.FC.CTG (ISC-enriched organoids [3]; Dose 0.08 uM, primary screen): 0.058 log 2 fold change
Z.CTG (ISC-enriched organoids [3]; [12]): 0.139
Dose.FC.CTG (ISC-enriched organoids [3]; Dose 0.40 uM, primary screen): −0.051 log 2 fold change
Z.CTG (ISC-enriched organoids [3]; [13]): −0.122
Dose.FC.CTG (ISC-enriched organoids [3]; Dose 2.00 uM, primary screen): −0.431 log 2 fold change
Z.CTG (ISC-enriched organoids [3]; [14]): −1.029
Dose.FC.CTG (ISC-enriched organoids [3]; Dose 10.00 uM, primary screen): −0.950 log 2 fold change
Z.CTG (ISC-enriched organoids [3]; [15]): −2.268
SSMD.CTG (ISC-enriched organoids [3]; [8]): 0.131
SSMD.CTG (ISC-enriched organoids [3]; [9]): −0.190
SSMD.CTG (ISC-enriched organoids [3]; [10]): −0.877
SSMD.CTG (ISC-enriched organoids [3]; [11]): −1.581
